Data: ChEMBL document CHEMBL1147276, “Novel Acetylenic Acids from the Root Bark of Paramacrolobium caeruleum: Inhibitors of 3-Hydroxy-3-methyl-glutaryl Coenzyme A Reductase” (J Nat Prod, 1989)

What follows are compounds tested against T1, 3-hydroxy-3-methylglutaryl-coenzyme A reductase (Homo sapiens, UniProt P04035) (assay: Inhibition of human HMGCoA reductase). Conditions: not given; call rule not given here.
T1 sequence (P04035 whole entry): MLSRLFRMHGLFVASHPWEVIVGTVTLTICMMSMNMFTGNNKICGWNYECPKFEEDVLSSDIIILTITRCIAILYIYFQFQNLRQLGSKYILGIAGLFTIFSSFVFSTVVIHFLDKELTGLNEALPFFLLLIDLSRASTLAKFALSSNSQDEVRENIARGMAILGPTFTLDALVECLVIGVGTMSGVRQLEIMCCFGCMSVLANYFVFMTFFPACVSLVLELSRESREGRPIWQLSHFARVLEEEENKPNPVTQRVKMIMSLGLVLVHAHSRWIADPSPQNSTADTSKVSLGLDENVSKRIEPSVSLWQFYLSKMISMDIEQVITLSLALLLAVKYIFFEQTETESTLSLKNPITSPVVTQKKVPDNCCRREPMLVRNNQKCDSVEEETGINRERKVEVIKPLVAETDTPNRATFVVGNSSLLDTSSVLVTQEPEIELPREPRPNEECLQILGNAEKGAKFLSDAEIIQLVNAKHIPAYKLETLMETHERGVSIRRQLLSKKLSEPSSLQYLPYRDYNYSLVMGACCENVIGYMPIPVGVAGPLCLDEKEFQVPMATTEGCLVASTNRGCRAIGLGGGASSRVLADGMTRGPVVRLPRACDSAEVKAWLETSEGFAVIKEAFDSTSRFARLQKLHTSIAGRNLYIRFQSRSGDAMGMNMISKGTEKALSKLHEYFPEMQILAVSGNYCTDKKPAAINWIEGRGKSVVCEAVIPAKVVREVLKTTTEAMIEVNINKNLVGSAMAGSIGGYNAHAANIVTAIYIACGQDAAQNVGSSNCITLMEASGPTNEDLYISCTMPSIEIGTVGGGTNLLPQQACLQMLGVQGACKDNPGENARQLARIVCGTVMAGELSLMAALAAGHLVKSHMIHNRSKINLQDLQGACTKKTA

SMILES | IC50
CCCCCCCC/C=C\CCCCCCCC(=O)O [OLEIC ACID] | Not Active
CCCCCCCCCCCCCCCCCC(=O)O [STEARIC ACID] | Not Active

Same assay, conditions: read-out: IC50

SMILES | IC50 [µM]
CCCCCCCCC#CC#C/C=C\CCCC(=O)O | 1.5
CCCCCCCCC#CC#CC1OC1CCCC(=O)O (centres undefined) | 5
CCCCCCCCC#CC#CC(O)CCCCC(=O)O (centres undefined) | 7
CCCCCCCCC#CC#CCCCCCC(=O)O | 5
CCCCC#CC#CCCCCCC(=O)O | 3
CCCCCCCCC#CCCCCCCCC(=O)O | 5
CCCCCCCCC#CC#C/C=C/CCCC(=O)O | 0.5
